In patent publication US6960580B2, “Nitrogenous heterocyclic substituted quinoline compounds” (Millennium Pharmaceuticals, Inc., priority 2001, dated 2005) one finds IC50 data, which are given here for 1 molecule.

The target of experiment [1] is T1, β-PDGFR (Homo sapiens, UniProt P09619). In words: MG63 phosphorylation assay (endogenous β-PDGFR phosphorylation, PDGF-BB stimulation with human plasma). The experiment is classed as cell-based. On the set-up: This assay is for measuring endogenous β-PDGFR phosphorylation in MG63 cells; endogenous in cells; host or cells: MG63 human osteosarcoma cells (ATCC). As to conditions: MG63 human osteosarcoma cells; PDGF-BB stimulation in presence of 45% human plasma; PDGF receptor phosphorylation; read-out: MG63 w/human plasma IC50.
T1 sequence (P09619 33-1106): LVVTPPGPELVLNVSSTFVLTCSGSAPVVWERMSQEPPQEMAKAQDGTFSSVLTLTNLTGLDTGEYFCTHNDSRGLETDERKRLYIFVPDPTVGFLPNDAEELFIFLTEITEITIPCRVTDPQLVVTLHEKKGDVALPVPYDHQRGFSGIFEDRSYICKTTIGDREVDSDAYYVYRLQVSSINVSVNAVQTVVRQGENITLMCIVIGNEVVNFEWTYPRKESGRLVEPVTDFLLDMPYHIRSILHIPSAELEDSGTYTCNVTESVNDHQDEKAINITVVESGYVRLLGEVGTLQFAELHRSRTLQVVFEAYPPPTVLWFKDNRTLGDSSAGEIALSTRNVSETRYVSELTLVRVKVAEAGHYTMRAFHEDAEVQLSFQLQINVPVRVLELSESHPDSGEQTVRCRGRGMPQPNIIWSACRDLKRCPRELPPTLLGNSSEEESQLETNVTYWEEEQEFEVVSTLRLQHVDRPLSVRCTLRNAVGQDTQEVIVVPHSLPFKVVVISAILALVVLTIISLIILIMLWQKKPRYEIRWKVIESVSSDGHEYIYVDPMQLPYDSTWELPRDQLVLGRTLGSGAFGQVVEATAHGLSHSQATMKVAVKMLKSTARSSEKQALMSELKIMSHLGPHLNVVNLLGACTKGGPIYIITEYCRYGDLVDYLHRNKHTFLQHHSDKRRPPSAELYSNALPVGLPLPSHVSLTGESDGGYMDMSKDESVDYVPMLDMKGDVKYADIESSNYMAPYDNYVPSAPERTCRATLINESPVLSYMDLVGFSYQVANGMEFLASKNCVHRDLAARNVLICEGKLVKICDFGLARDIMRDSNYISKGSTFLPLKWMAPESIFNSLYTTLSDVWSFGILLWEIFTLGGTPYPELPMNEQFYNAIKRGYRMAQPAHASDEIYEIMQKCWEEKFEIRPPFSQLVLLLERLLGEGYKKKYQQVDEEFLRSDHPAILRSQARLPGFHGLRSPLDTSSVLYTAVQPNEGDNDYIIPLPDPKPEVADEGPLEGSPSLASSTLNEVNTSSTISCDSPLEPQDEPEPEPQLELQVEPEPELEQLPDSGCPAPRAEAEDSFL
Text: The MG63 cell line is a human osteosarcoma tumor cell line available from the ATCC. This assay is for measuring endogenous β-PDGFR phosphorylation in MG63 cells. The assay conditions are the same as those described at for HR5 cell, except that PDGF-BB stimulation is provided in the presence or absence of 45% human plasma.

Experiment [2] addresses T1, β-PDGFR. In words: HR5 phosphorylation assay (CHO cells overexpressing human β-PDGFR, PDGF BB stimulation). The experiment is classed as cell-based. Details: host or cells: CHO cells (HR5 line). The following applies: 8 nM PDGF BB, PDGF receptor phosphorylation.
Experimental: • (1) HR5 Phosphorylation Assay
The HR5 cell line is a cell line of CHO cells engineered to overexpress human β-PDGFR, which cell line is available from the ATCC. The expression level of β-PDGFR in HR5 cells is around 5×10^4 receptor per cell. For the phosphorylation assay according to the invention, HR5 cells were grown to confluency in 96-well microtiter plates under standard tissue culture conditions, followed by serum-starvation for 16 hours. Quiescent cells were incubated at 37° C. without or with increasing concentrations of the test compound (0.01-30 uM) for 30 minutes followed by the addition of 8 nM PDGF BB for 10 minutes. Cells were lysed in 100 mM Tris, pH 7.5, 750 mM NaCl, 0.5% Triton X-100, 10 mM sodium pyrophosphate, 50 mM NaF, 10 ug/ml aprotinin, 10 ug/ml leupeptin, 1 mM phenylmethylsulfonyl fluoride, 1 mM sodium vanadate, and the lysate was cleared by centrifugation at 15,000× g for 5 minutes. Clarified lysates were transferred into a second microtiter plate in which the wells were previously coated with 500 ng/well of 1B5B11 anti-β-PDGFR mAb, and then incubated for two hours at room temperature. […] Wells were washed prior to adding ABTS (Sigma), and the rate of substrate formation was monitored at 650 nm.

Take `COc1cc2c(N3CCN(C(=O)Nc4ccc(OC(C)C)cc4)CC3)c(C#N)cnc2cc1OCCCN1CCCCC1` [Example 1, {4-[3-cyano-6-methoxy-7-(3-pipetidylpropoxy)quinolin-4-yl)piperazinyl}-N-[4-(methylethoxy)phenyl]carboxamide]: the results for the IC50 on β-PDGFR [1] and on β-PDGFR [2] were 134 nM and 60 nM, respectively.
